These results are taken from patent US20090211893A1, “Photo-Activatable Amino Acids” (priority 2005, published 2009).

The subject of one data set is caveolin-1. The data set is described as follows: Photo-crosslinking of transfected caveolin-1 in COS7 cells. Format: cell-based, human. As to conditions: irradiated samples, COS7 cells in LM-4. As to the method:
FIG. 3: Photo-crosslinking induced by photo-amino acids. COS7 cells (panels a,b) or HeLa cells (panel c) were grown in LM-4 (panel a) or LM-2 (panels b,c) in the absence or presence of L-photo-Leu (pL), L-photo-Met (pM) or DL-photo-Ile (pl) or mixtures of them (pLM or PLMI) followed by UV irradiation (+) or no irradiation (−). cross-linked products formed after UV-irradiation were detected by SDS-PAGE followed by western blotting using (a) anti-caveolin 1 to detect overexpressed caveolin 1, (b) anti-stomatin to detect endogenous stomatin or (c) anti-EEA1 to detect endogenous EEA1. In panel b, lanes 8 and 9 show cross-linking with two different concentrations of the chemical cross-linker DSS for comparison of cross-linking efficiency. In panel c, photocrosslinking of endogenous EEA1 by photo-Leu and photo-Met is compared to chemical cross-linking using DSS or para-formaldehyde (PFA) as indicated. Note that chemical cross-linking leads to protein aggregates that are not resolvable by SDS-PAGE while photocrosslinking identifies more than six discrete cross-linked bands.
COS7 (monkey kidney) cells were grown in DMEM high glucose (Gibco no. 11995; with L-glutamine and Na-pyruvate)+10% FCS. Typically, 3 cm2 of cells are needed for a cross-linking experiment with detection by western blotting. At about 70%, medium was replaced by LM-4 (DMEM lacking Met, Leu, Ile and Val and phenol red, supplemented with 5% dialyzed FCS) or by LM-2 (LM-4+1 mM of each Ile and Val). Photo-amino acids were added to a final concentration of 4 mM photo-Leu and photo-Ile, 1.7 mM photo-Met and cells were cultivated for further 22 h followed by washing with PBS and UV-irradiation using a 200 W high pressure mercury lamp (Oriel Photomax) with a glass filter to remove wavelengths shorter 310 nm. The samples were placed at a distance of 38 cm to the light source, corresponding to a illuminated area of 105 mm diameter. […] We used an irradiation time 1-3 min for experiments with living cells. […] Lysis of cells, SDS-PAGE and western blotting were done as described^33. […]

Data set [1] deals with COS7 cells. The data set can be described thus: Cell viability by trypan blue exclusion. Format: cell-based, monkey. As to conditions: LM-2 medium supplement; percent ± SD of viable cells (n = 6). The text has this:
(§1) Unnatural amino acids frequently are toxic to cells. To find out if this is the case for photo-amino acids of the invention, we monitored in COS7 cells protein biosynthesis by incorporation of [^3H]Phe and viability by trypan blue exclusion of cells grown in the presence or absence of the photo-amino acids photo-Leu, photo-Met and photo-Ile. Due to the lack of two essential amino acids in the growth medium, protein biosynthesis is reduced to about 65% of that in a full growth medium. […] Although cells grew slightly slower than in full growth medium, viability (Table 2) and cell morphology (not shown) were unaffected.

Data set [2] deals with COS7 cells. The data set can be described thus: Protein biosynthesis by incorporation of [3H]Phe. Format: cell-based, monkey. Conditions: for Protein synthesis: LM-2 medium supplement, value in full DMEM medium set to 100, average ± SD of triplicate; for effect on protein biosynthesis: addition to LM-2 medium.
Text: as §1

The subject of data set [3] is E. coli beta-galactosidase. The data set is described as follows: Activity of beta-galactosidase expressed in cells grown with photo-amino acids. Format: cell-based, monkey. Conditions: COS 7 cells, 20 h in LM-2 with photo-amino acid; percent ± SD (n = 6) of value in DMEM + FCS. The text has this: We furthermore tested, whether proteins produced by cells grown with photo-amino acids are functional or not. For that, we transfected cells with GFP-fusion constructs of the small GTPase Rab5 and of mutated Rab5 that is constitutively activated (GFP-Rab5QL) or dominant negative (GFP-Rab5SN)^19 and monitored the GFP fluorescence by confocal microscopy. Four hours after transfection, when cells were switched to media containing photo-amino acids, no GFP signal was detectable (see FIG. 7). […] Both, staining intensity and localization were unaffected by the presence of either of the photo-amino acids. Taking into account a frequency of substitution of photo-Met for Met of 35% (see below) and the amounts of Met in Rab5 and GFP, more than 80% of the fusion protein will have photo-Met in both the Rab5- and the GFP-part of the fusion, more than 99% in at least one of the two parts. […] To corroborate this with a quantitative assay, we measured the activity of beta-galactosidase that was expressed in the absence or presence of photo-amino acids (see Table 4). Activity in LM-2 labeling medium was 79% of that in full DMEM. The addition of either of the three photo-amino acids or of a mixture of photo-Met and photo-Leu had no significant additional effect. E. coli beta-galactosidase contains 23 methionines of which on average 8 would be replaced by photo-Met; less than 0.01% of the protein are expected to have no substitution by photo-Met. We conclude that photo-amino acids are non-toxic to cultivated mammalian cells and can, at least partially, functionally replace branched chain amino acids and methionine.

In data set [4] the test system is COS7 cells. The data set is described as follows: Cell viability after UV irradiation by trypan blue exclusion. Format: cell-based, monkey. The method, then:
COS7 (monkey kidney) cells were grown in DMEM high glucose (Gibco no. 11995; with L-glutamine and Na-pyruvate)+10% FCS. Typically, 3 cm2 of cells are needed for a cross-linking experiment with detection by western blotting. At about 70%, medium was replaced by LM-4 (DMEM lacking Met, Leu, Ile and Val and phenol red, supplemented with 5% dialyzed FCS) or by LM-2 (LM-4+1 mM of each Ile and Val). Photo-amino acids were added to a final concentration of 4 mM photo-Leu and photo-Ile, 1.7 mM photo-Met and cells were cultivated for further 22 h followed by washing with PBS and UV-irradiation using a 200 W high pressure mercury lamp (Oriel Photomax) with a glass filter to remove wavelengths shorter 310 nm. The samples were placed at a distance of 38 cm to the light source, corresponding to a illuminated area of 105 mm diameter. […] We used an irradiation time 1-3 min for experiments with living cells. […] Lysis of cells, SDS-PAGE and western blotting were done as described^33. For immunoprecipitation, cells were lysed in 20 mM Hepes/NaOH pH 7.4, 100 mM NaCl, 5 mM EDTA, 1% Triton X 100, 0.5% sodium deoxycholate, the lysate was cleared with protein-A beads and incubated with beads that were preincubated with polyclonal anti-myc or anti-HA antibody. Beads were collected and washed three times each with 20 mM Hepes/NaOH pH 7.25, 0.5% CHAPS and with 100 mM Tris-HCl pH 8.3, 150 mM NaCl, 2 mM EDTA, 0.1% w/v SDS, 0.5% w/v Nonidet P40, 0.5% w/v sodiumdeoxycholate. Proteins were eluted from beads by heating with reducing SDS-PAGE sample buffer.
as §1

For another data set, the system named is HA-tagged human PGRMC1. The data set can be described thus: Competition of PGRMC1 cross-linking by natural amino acids. The format is cell-based. Conditions: 3 mM competing amino acid, COS7 cells in LM-4. As to the method: FIG. 4: Specificity of incorporation and cross-linking by photo-Met and photo-Leu. COS7 cells were transfected with HA-tagged human PGRMC1 and were grown in LM-4 in the absence or presence of photo-Leu (A) or photo-Met (B) with addition of 3 mM of the indicated competing amino acid. cross-linked products formed after UV-irradiation were detected by SDS-PAGE followed by western blotting against the HA-epitope. (C) COS7 cells were grown in the presence of 1.7 mM [1-^14C]photo-Met, a constant trace amount of [^3H]Phe and 3 mM of competing unlabeled amino acids as indicated in the legend. Protein was precipitated and protein-bound radioactivity was determined by scintillation counting. […] The control value obtained in the absence of competing amino acid (con) is set to 100. Data are average±SD of triplicate determinations.
If so, addition of the complementary naturally occurring amino acid should strongly reduce incorporation and inhibit photo-crosslinking. […] To find out if competition for cross-linking reflects competition for incorporation, we competed incorporation of [1-^14C]photo-Met with the same set of amino acids (FIG. 4c). […] It should be noted that Met, Val, Leu and Ile all are transported into cells by the L-type transport system^25, which presumably also transports the three photo-amino acids. The strong difference in competition by Met and Leu versus Val and Ile excludes competition at the level of uptake.

For data set [5], the system named is COS7 cells. The data set is described as follows: Cell viability after UV irradiation by trypan blue exclusion. The format is cell-based, monkey. This is another data set of the same source.

On to `CC(C(N)C(=O)O)C1(C)N=N1` (stereo not drawn) [photo-Ile, 2R,S-Amino-3-R,S-methyl-4,4′-azi-pentanoic acid], for which the “formation of covalent caveolin dimers upon UV irradiation” value with caveolin-1 is recorded as “very little cross-linking”. The same compound yielded a Cell viability with COS7 cells [1] of 99.6 ± 0.3%. For the same compound, in the data set with COS7 cells [2], the Protein synthesis was 62.8 ± 2.8 and the “effect on protein biosynthesis” value is reported as “no significant effect”. In addition, the beta-galactosidase activity in data set [3] is reported as 93 ± 9%.
In the case of `CC1(CC(N)C(=O)O)N=N1` [photo-Leu, L-2-amino-4,4′-azi-pentanoic acid], the Cell viability in the data set on COS7 cells [4] (1 min UV) was 99.5 ± 0.2%; in the data set with COS7 cells [4] (1 min UV + 1 h chase), 95.5 ± 3.0%; in the data set on COS7 cells [4] (3 min UV), 99.6 ± 0.2%; in the data set with COS7 cells [4] (3 min UV + 1 h chase) it was 95.3 ± 1.8%; in the data set on COS7 cells [4] (no UV + 1 h chase at 37 degree Celsius in PBS) it was 99.3 ± 0.5%; with COS7 cells [4] (no UV, percent ± SD of viable cells) it was 99.5 ± 0.3%. In addition, the Cell viability in the data set on COS7 cells [1] amounted to 99.8 ± 0.2%; in the data set on COS7 cells [5] (10 min UV), 99.5 ± 0.3%; in the data set on COS7 cells [5] (10 min UV + 1 h chase), 91.5 ± 4.0%; in the data set on COS7 cells [5] (30 min UV) it was 98.8 ± 0.4%; with COS7 cells [5] (30 min UV + 1 h chase), 17.9 ± 3.2%. Besides, in the data set on caveolin-1, the “formation of covalent caveolin dimers upon UV irradiation” value is recorded as “significant formation of a cross-linked dimer”. Also, the Protein synthesis in the data set on COS7 cells [2] stood at 61.5 ± 1.7. In addition, the “effect on protein biosynthesis” value in the data set with COS7 cells [2] is on record as “no significant effect”. The “competition of cross-linking by Met, Val, Leu and Ile” value in the data set on HA-tagged human PGRMC1 was “competed mainly by Leu”. The beta-galactosidase activity in data set [3] is 68 ± 9%.
